According to paper PMC4790320, “Purification of a Multidrug Resistance Transporter for Crystallization Studies” (Antibiotics, 2015):

Target: T1, MdtM (Escherichia coli, UniProt P39386)
T1 construct: full ORF in modified pBAD/Myc-His A, decaHis tag removed with thrombin; expressed in E. coli LMG194; IMAC with ATP wash to remove chaperonin, SEC in DDM; ~45 kDa; monomer
Assay: intrinsic tryptophan fluorescence quenching
Assay type: binding

T1 sequence (P39386 whole entry): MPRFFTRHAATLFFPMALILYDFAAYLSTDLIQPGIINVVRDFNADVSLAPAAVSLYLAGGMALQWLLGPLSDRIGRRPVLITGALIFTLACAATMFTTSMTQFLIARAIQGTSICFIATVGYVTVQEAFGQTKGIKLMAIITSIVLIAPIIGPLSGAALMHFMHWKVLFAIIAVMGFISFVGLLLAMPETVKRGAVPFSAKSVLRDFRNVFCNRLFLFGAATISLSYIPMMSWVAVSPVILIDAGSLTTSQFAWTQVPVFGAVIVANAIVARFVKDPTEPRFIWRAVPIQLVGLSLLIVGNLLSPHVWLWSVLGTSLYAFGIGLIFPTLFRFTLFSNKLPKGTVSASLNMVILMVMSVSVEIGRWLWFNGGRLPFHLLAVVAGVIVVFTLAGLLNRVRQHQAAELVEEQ

## O=C(N[C@H](CO)[C@H](O)c1ccc([N+](=O)[O-])cc1)C(Cl)Cl [chloramphenicol]
  Kd: 36 ± 3 nM
